Earlier results on four compounds are cited in patent publication US20080188457A1, “Modulation of Neurogenesis with Biguanides and GSK3-beta Agents” (BrainCells, Inc., priority 2007, published 2008).

pEC50, pIC50: −log10 of the molar value.

The subject of data set [1] is Group I or Group III receptors. The settings on record: at sub-mM concentrations.
The target in data set [2] is mGluR2 (Homo sapiens, UniProt Q14416).
Data set [3] concerns the target mGluR3 (Homo sapiens, UniProt Q14832).
For data set [4], the system named is KA, AMPA, and NMDA iGlu receptors.
The target of data set [5] is human mGlu3 receptor (Homo sapiens, UniProt Q14832). Conditions: in vitro; low nanomolar range.
In data set [6] the target is human mGlu2 receptor (Homo sapiens, UniProt Q14416). Conditions: in vitro; low nanomolar range.
In data set [7] the test system is gluconeogenesis. The settings on record: person with type 2 diabetes.

Chain of human mGlu3 receptor (Q14832 23-879): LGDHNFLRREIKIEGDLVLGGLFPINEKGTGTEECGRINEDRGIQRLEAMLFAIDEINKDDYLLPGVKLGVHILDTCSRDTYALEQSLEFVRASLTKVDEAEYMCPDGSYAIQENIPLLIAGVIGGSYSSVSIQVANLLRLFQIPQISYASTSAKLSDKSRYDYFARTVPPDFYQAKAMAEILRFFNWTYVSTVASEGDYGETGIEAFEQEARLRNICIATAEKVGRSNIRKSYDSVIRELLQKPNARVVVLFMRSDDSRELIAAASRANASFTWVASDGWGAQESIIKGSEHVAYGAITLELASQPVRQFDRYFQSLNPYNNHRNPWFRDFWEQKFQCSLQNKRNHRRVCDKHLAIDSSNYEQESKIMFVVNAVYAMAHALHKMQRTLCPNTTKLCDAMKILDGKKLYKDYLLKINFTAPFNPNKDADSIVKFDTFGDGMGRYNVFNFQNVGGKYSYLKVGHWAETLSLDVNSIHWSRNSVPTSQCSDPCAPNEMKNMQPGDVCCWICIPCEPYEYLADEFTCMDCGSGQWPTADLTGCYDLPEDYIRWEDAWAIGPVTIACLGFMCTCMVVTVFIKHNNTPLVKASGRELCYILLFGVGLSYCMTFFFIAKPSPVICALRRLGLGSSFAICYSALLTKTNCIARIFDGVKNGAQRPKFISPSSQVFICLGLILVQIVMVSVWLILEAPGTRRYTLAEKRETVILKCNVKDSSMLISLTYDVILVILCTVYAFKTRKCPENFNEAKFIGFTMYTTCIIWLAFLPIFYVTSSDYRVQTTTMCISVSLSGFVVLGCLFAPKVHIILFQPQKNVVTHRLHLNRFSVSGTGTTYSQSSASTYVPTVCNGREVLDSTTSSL
Chain of mGluR3 (Q14832 23-879): as above
Chain of mGluR2 (Q14416 19-872): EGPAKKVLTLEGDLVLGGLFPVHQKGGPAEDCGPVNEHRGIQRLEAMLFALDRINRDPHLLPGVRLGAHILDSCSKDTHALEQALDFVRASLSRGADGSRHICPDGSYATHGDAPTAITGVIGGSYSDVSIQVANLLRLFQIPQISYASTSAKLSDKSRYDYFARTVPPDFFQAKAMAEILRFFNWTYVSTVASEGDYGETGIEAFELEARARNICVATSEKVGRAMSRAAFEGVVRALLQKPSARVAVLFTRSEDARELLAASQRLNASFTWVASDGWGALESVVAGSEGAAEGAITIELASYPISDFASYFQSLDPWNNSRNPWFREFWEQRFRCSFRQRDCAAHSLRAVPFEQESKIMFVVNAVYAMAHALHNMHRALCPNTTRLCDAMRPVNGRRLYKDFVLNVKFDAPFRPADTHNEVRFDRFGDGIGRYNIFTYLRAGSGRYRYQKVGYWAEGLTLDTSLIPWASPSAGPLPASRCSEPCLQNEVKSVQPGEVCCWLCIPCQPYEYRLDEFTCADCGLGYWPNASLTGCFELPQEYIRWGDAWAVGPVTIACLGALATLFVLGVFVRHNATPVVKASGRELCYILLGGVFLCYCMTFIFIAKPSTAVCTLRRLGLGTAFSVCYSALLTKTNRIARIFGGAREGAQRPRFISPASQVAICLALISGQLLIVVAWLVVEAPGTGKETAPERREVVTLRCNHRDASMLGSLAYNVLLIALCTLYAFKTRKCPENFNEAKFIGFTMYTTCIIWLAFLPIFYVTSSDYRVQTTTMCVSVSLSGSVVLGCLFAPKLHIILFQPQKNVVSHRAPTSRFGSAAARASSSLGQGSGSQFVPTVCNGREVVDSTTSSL
Chain of human mGlu2 receptor (Q14416 19-872): as above

As for `NC1(C(=O)O)CCc2cc(P(=O)(O)O)ccc21` (racemic) [APICA, (RS)-1-amino-5-phosphonoindan-1-carboxylic acid], the “activity against Group I or Group III receptors” value in data set [1] was “no appreciable activity”. Further, the pIC50 in data set [2] and in data set [3] was roughly 4.52 in each case. Turning to `N[C@](CC1c2ccccc2Oc2ccccc21)(C(=O)O)[C@H]1C[C@@H]1C(=O)O` [LY341495, (2S)-2-amino-2-(1S,2S-2-carboxycycloprop-1-yl)-3-(xanth-9-yl) propanoic acid], in data set [4], the “activity against KA, AMPA, and NMDA iGlu receptors” value was “substantially inactive”.

Turning to `N[C@@]1(C(=O)O)CO[C@H]2[C@H](C(=O)O)[C@H]21` [LY379268, (−)-2-Oxa-4-aminobicyclohexane-4,6-dicarboxylic acid], the negative-log EC50 (pEC50) in data set [5] and in data set [6] was greater than 8.00 each time. Take `CN(C)C(=N)NC(=N)N` [metformin, 1,1-Dimethylbiguanide]: in data set [7], the “reduction of the rate of gluconeogenesis” value is “over one third”.

What is called pIC50 is the negative decadic logarithm of the IC50, by convention in mol/L. As a reminder, the pEC50 is −log10 of the EC50, conventionally taken in molar units.
